Reference: patent publication KR20210050472A, “에독사반염 및 이를 포함하는 약제학적 조성물” (priority 2019, dated 2021)
Where two headings read alike, the source gives them in different places.

Experiments:
[1] = Heat stability test (Test Example 1), crystal form retention at 40±2℃, 75±5% RH; type: physicochemical; conditions: for stability of crystal form: 40℃/75% RH
[2] = Stability test in pH solutions (Test Example 2), related substances by HPLC; type: physicochemical; conditions: for degraded: read-out: amount of related substances generated
[3] = 40℃, 75% RH, from week 8 of the stability test

In the case of `CN1CCc2nc(C(=O)N[C@@H]3C[C@@H](C(=O)N(C)C)CC[C@@H]3NC(=O)C(=O)Nc3ccc(Cl)cn3)sc2C1` [말산염 결정형, 에독사반 말산염 결정형, reference compound], the “change in appearance and powder X-ray diffraction values” ([1]; 40℃, 75% RH, week 24) is reported as “성상 변화 및 분말 X선 회절 값이 변화”, the “stability of crystal form” value ([1]; 8 weeks, 말산염) is reported as “결정형 유지” and the “stability of crystal form” value ([1]; 24 weeks, 말산염) is reported as “결정형 변화”.
In the case of `CN1CCc2nc(C(=O)N[C@@H]3C[C@@H](C(=O)N(C)C)CC[C@@H]3NC(=O)C(=O)Nc3ccc(Cl)cn3)sc2C1` [벤젠술폰산염 결정형 Ⅰ형, 에독사반 벤젠술폰산염 결정형 Ⅰ형], the “stability of crystal form” value ([1]; 8 weeks, 벤젠술폰산염) is reported as “결정형 유지”, the “stability of crystal form” value ([1]; 16 weeks) is reported as “결정형 유지” and the “stability of crystal form” value ([1]; 24 weeks, 벤젠술폰산염) is reported as “결정형 유지”.
For `CN1CCc2nc(C(=O)N[C@@H]3C[C@@H](C(=O)N(C)C)CC[C@@H]3NC(=O)C(=O)Nc3ccc(Cl)cn3)sc2C1` [벤젠술폰산염 결정형 Ⅱ형, 에독사반 벤젠술폰산염 결정형 Ⅱ형, reference compound], the “change of crystal form” value [1, 3] was “일부가 결정형 Ⅰ으로 변화”, the “change of endothermic point by differential scanning calorimetry” value [1, 3] was “결정형 Ⅰ형의 흡열점이 관찰” and the “stability of crystal form” value ([1]; 8 weeks, 벤젠술폰산염) was “일부 결정형 Ⅰ형으로 변화”.
In the case of `CN1CCc2nc(C(=O)N[C@@H]3C[C@@H](C(=O)N(C)C)CC[C@@H]3NC(=O)C(=O)Nc3ccc(Cl)cn3)sc2C1` [에디실산염 수화물 결정형, 에독사반 에디실산염 수화물 결정형], the “change in crystal form and appearance” value ([1]; 40℃, 75% RH, over 24 weeks) is reported as “결정형의 변화 및 성상의 변화가 발생하지 않아”, the “stability of crystal form” value ([1]; 8 weeks, 에디실산염 수화물) is reported as “결정형 유지” and the “stability of crystal form” value ([1]; 16 weeks) is reported as “결정형 유지”. For the same compound, the “stability of crystal form” value ([1]; 24 weeks, 에디실산염 수화물) was “결정형 유지”, the degraded ([2]; distilled water (DW)) was 0.18% and the degraded ([2]; pH 1.2) was 19.3%. The degraded ([2]; pH 7.8) was 11.4%, the “total related substances generated, reduction versus tosylate hydrate” value ([2]; pH 7.8 solution) was roughly 4.5% and the “total related substances generated, compared with tosylate hydrate” value ([2]; solutions of DW, pH 1.2 and pH 7.8) was “총유연물질이 적게 발생”.
